This note sets out measurements from ChEMBL document CHEMBL1201862, “PubChem BioAssay data set” (2004).

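These data come from cells grown in 96-well plates and exposed to compound for 48 hours at five concentrations. GI50 is the concentration that inhibits growth by half.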 The source made the active and inactive calls. No stated cut-off is given here; in the data, active = GI50 up to about 1.1 µM and inactive = higher.

Among the test systems are A498; A549; ACHN; COLO 205; HCC 2998; HCT-116; HCT-15; HOP-92; Hs-578T; IGROV-1; LOX IMVI; MDA-MB-231; MOLT-4; NCI-H460; OVCAR-5; PC-3; SK-OV-3; SNB-19; SNB-75; T47D.
Holding throughout (assay): inhibition of tumour cell growth, NCI panel, 48 h

`C[N+]1(C)CN(c2ccccc2)C2(CCN(CCCC(=O)c3cccs3)CC2)C1=O`: the GI50 with A498 is > 100 µM (inactive); in the experiment with A549 it was > 100 µM (inactive); in the experiment on ACHN, > 100 µM (inactive); in the experiment on COLO 205, 48 µM (inactive); in the experiment on HCC 2998, 65.9 µM (inactive); in the experiment on HCT-116, 58.9 µM (inactive). Further, the GI50 with HCT-15 was 56.4 µM; in the experiment with HOP-92, 35.7 µM (inactive); in the experiment with Hs-578T it was 53.7 µM (inactive); in the experiment with IGROV-1, 68.1 µM (inactive); in the experiment on LOX IMVI, 58.1 µM (inactive); in the experiment with MDA-MB-231, 72.6 µM (inactive). The GI50 in the experiment on MOLT-4 is 71.6 µM (inactive); with NCI-H460 it was 57 µM (inactive); in the experiment with OVCAR-5, 85.1 µM (inactive); in the experiment on PC-3, > 100 µM (inactive); in the experiment on SK-OV-3, > 100 µM (inactive); in the experiment on SNB-19 it was > 100 µM (inactive). The GI50 with SNB-75 is 27.7 µM (inactive); with T47D it was > 100 µM (inactive).

Consider `CCOC(=O)c1csc(NC(=O)CCN2CCN(C)CC2)n1`, for which the GI50 was > 100 µM (inactive) in the experiment with A498; > 100 µM (inactive) in the experiment with A549; > 100 µM (inactive) in the experiment with ACHN; > 100 µM (inactive) in the experiment on COLO 205; > 100 µM (inactive) in the experiment with HCC 2998; greater than 100 µM with HCT-15. In addition, the GI50 with HOP-92 was > 100 µM (inactive); with Hs-578T it was 64.6 µM (inactive); in the experiment with LOX IMVI, > 100 µM (inactive); in the experiment with MDA-MB-231, > 100 µM (inactive); in the experiment with MOLT-4, 65.5 µM (inactive); in the experiment with NCI-H460, > 100 µM (inactive). The GI50 in the experiment with OVCAR-5, in the experiment on PC-3, with SK-OV-3, with SNB-19, in the experiment with SNB-75 and in the experiment on T47D was > 100 µM (inactive) each time.

Consider `CCOC(=O)c1csc(NC(=O)CN2CCCC2)n1`, for which the GI50 is > 100 µM (inactive) with A498; > 100 µM (inactive) with A549; > 100 µM (inactive) with ACHN; > 100 µM (inactive) in the experiment on COLO 205; > 100 µM (inactive) in the experiment on HCC 2998; greater than 100 µM in the experiment on HCT-15. For the same compound, the GI50 in the experiment on HOP-92, in the experiment with Hs-578T, with IGROV-1, with LOX IMVI, in the experiment with MDA-MB-231 and in the experiment with MOLT-4 was > 100 µM (inactive) throughout. Moreover, the GI50 in the experiment on NCI-H460, in the experiment on OVCAR-5, in the experiment on PC-3, with SK-OV-3, in the experiment on SNB-19 and in the experiment on SNB-75 was > 100 µM (inactive) each time. In addition, the GI50 with T47D was > 100 µM (inactive).

Regarding `CC(NNC(=O)c1cc[n+]([BH2-]C#N)cc1)c1ccc(Cl)c(Cl)c1` (centres undefined), the GI50 was 33.7 µM (inactive) in the experiment on A498; 32.5 µM (inactive) with A549; 24.3 µM (inactive) in the experiment with ACHN; 18.9 µM (inactive) in the experiment on COLO 205; 42.6 µM (inactive) with HCC 2998; 32.1 µM (inactive) in the experiment on HCT-116. Besides, the GI50 in the experiment on HCT-15 was 31.6 µM; in the experiment with HOP-92 it was 20.6 µM (inactive); with Hs-578T, 28.4 µM (inactive); with IGROV-1, 38.5 µM (inactive); in the experiment on LOX IMVI, 28.9 µM (inactive); with MDA-MB-231, 24.8 µM (inactive). The GI50 is 25.9 µM (inactive) with MOLT-4; 27.2 µM (inactive) in the experiment with NCI-H460; 41.3 µM (inactive) with OVCAR-5; 22.9 µM (inactive) in the experiment with PC-3; 27 µM (inactive) in the experiment on SK-OV-3; 38.3 µM (inactive) in the experiment on SNB-19. Also, the GI50 in the experiment with SNB-75 is 34.8 µM (inactive); in the experiment on T47D it was 23.3 µM (inactive).

For the compound `O=C1CC2(CCC(O)(c3ccc4ccccc4c3)C(C(=O)c3ccc4ccccc4c3)C2)C(=O)c2ccccc2N1` (centres undefined), the GI50 was > 100 µM (inactive) in the experiment with A498; > 100 µM (inactive) in the experiment on A549; > 100 µM (inactive) in the experiment on COLO 205; > 100 µM (inactive) in the experiment on HCC 2998; > 100 µM (inactive) in the experiment with HCT-116; greater than 10 µM in the experiment with HCT-15. In addition, the GI50 was 5.69 µM (inactive) with HOP-92; > 100 µM (inactive) with Hs-578T; > 100 µM (inactive) in the experiment with IGROV-1; > 100 µM (inactive) in the experiment with LOX IMVI; > 100 µM (inactive) in the experiment with MDA-MB-231; 8.93 µM (inactive) with MOLT-4. For the same compound, the GI50 was 29 µM (inactive) with NCI-H460; > 100 µM (inactive) in the experiment on OVCAR-5; 4.27 µM (inactive) with PC-3; > 100 µM (inactive) in the experiment with SK-OV-3; > 100 µM (inactive) in the experiment on SNB-19; > 100 µM (inactive) in the experiment with SNB-75. For the same compound, the GI50 in the experiment with T47D is 2.13 µM (inactive).

With `COC12OC3(C4OC41)C(C(=O)O[C@H]3CO[Si](C)(C)C(C)(C)C)C2C(=O)Oc1ccccc1` (some centres undefined), the GI50 in the experiment on A498, in the experiment with A549, in the experiment on ACHN, in the experiment on COLO 205, in the experiment with HCC 2998 and in the experiment on HCT-116 was > 100 µM (inactive) throughout. Moreover, the GI50 in the experiment on HCT-15 was greater than 100 µM; in the experiment on HOP-92, > 100 µM (inactive); in the experiment on Hs-578T, > 100 µM (inactive); in the experiment on IGROV-1 it was > 100 µM (inactive); with LOX IMVI it was > 100 µM (inactive); in the experiment with MDA-MB-231, 57.3 µM (inactive). Further, the GI50 with MOLT-4, with NCI-H460, with OVCAR-5, in the experiment on PC-3, with SK-OV-3 and in the experiment with SNB-19 was > 100 µM (inactive) throughout. The GI50 in the experiment with SNB-75 and with T47D was > 100 µM (inactive) throughout.

Take `CC(C)N(C)C(=O)C12C3C4C1C1C2C3C41C#N` (centres undefined): the GI50 in the experiment with A498, in the experiment on A549, in the experiment on ACHN, in the experiment on COLO 205, with HCC 2998 and in the experiment on HCT-116 was > 100 µM (inactive) each time. In addition, the GI50 in the experiment with HCT-15 was greater than 100 µM; with HOP-92 it was > 100 µM (inactive); in the experiment with Hs-578T it was > 100 µM (inactive); in the experiment on IGROV-1, > 100 µM (inactive); with LOX IMVI, > 100 µM (inactive); in the experiment with MDA-MB-231 it was > 100 µM (inactive). For the same compound, the GI50 in the experiment with MOLT-4 is > 100 µM (inactive); in the experiment with NCI-H460 it was > 100 µM (inactive); with OVCAR-5 it was > 100 µM (inactive); in the experiment on PC-3 it was > 100 µM (inactive); with SNB-19 it was > 100 µM (inactive); in the experiment with SNB-75 it was 7.64 µM (inactive). Further, the GI50 in the experiment with T47D was > 100 µM (inactive).

With `Cc1cc(S(=O)(=O)NC2=NCc3nc4ccccc4n32)c(S)cc1Cl`, the GI50 was 26.9 µM (inactive) in the experiment on A498; 25.8 µM (inactive) in the experiment with A549; 32.4 µM (inactive) in the experiment with ACHN; 19.4 µM (inactive) with COLO 205; 17.2 µM (inactive) with HCC 2998; 18.3 µM (inactive) with HCT-116. The GI50 was 24.7 µM with HCT-15; 18.7 µM (inactive) with HOP-92; 21.4 µM (inactive) with Hs-578T; 24.8 µM (inactive) with IGROV-1; 18.4 µM (inactive) in the experiment with LOX IMVI; 23.5 µM (inactive) with MDA-MB-231. In addition, the GI50 in the experiment on MOLT-4 is 19.6 µM (inactive); in the experiment with NCI-H460 it was 27.7 µM (inactive); in the experiment with OVCAR-5, 20.7 µM (inactive); in the experiment with PC-3 it was 22.2 µM (inactive); in the experiment with SNB-19 it was 32.3 µM (inactive); with SNB-75, 24.2 µM (inactive). In the experiment with T47D, the GI50 was 21.9 µM (inactive).
